Legend:
Assay in all cases: Competitive isoTOP-ABPP, cell lysates
Format in all cases: binding
USP22 C44 (Q9UPT9) = target: T1, USP22 C44 (Q9UPT9) (Homo sapiens, UniProt Q9UPT9)
T1 sequence (Q9UPT9 1-525): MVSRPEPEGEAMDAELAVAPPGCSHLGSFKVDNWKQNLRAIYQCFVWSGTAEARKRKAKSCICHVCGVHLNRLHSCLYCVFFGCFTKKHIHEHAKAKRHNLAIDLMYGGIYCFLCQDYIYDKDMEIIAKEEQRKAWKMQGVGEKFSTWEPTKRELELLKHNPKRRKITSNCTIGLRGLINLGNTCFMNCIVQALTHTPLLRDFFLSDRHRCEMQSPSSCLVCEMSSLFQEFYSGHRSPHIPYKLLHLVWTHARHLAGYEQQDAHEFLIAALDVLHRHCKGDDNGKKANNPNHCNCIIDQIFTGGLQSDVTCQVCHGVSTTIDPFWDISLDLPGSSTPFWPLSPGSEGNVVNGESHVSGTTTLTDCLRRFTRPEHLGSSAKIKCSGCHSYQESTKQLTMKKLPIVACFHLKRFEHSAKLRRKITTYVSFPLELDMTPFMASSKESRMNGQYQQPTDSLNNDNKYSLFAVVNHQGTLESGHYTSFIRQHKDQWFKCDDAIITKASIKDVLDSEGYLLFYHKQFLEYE

USP34 C1090 (Q70CQ2) = USP34 C1090 (Q70CQ2) (Homo sapiens, UniProt Q70CQ2); settings: for isoTOP-ABPP ratio (reactivity profile), Q70CQ2_C1090: 500 μm in-vitro ramos
PES1 C361 (O00541) = PES1 C361 (O00541) (Homo sapiens, UniProt O00541)
NR3C1 C622 (P04150) = target: T2, NR3C1 C622 (P04150) (Homo sapiens, UniProt P04150)
T2 sequence (P04150 1-777): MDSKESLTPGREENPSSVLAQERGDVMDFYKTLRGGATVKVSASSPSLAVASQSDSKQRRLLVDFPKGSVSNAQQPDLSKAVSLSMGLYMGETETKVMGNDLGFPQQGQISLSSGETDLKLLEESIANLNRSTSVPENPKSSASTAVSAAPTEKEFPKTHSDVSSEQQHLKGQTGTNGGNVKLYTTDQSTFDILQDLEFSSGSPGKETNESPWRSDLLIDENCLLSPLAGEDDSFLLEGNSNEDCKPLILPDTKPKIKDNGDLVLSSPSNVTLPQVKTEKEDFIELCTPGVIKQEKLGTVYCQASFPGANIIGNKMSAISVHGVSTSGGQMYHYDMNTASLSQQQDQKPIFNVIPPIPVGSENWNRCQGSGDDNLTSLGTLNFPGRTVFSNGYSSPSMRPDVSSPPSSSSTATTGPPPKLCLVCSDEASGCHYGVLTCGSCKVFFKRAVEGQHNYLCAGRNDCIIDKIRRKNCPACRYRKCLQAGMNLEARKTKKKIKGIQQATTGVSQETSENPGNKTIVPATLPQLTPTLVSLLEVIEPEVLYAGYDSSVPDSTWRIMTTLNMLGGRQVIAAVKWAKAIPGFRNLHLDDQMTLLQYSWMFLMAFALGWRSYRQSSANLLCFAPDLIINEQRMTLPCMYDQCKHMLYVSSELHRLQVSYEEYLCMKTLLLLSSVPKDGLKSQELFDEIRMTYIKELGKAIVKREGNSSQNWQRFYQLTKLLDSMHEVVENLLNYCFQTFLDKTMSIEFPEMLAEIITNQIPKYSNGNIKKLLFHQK

Sequence of USP34 C1090 (Q70CQ2) (Q70CQ2 whole entry): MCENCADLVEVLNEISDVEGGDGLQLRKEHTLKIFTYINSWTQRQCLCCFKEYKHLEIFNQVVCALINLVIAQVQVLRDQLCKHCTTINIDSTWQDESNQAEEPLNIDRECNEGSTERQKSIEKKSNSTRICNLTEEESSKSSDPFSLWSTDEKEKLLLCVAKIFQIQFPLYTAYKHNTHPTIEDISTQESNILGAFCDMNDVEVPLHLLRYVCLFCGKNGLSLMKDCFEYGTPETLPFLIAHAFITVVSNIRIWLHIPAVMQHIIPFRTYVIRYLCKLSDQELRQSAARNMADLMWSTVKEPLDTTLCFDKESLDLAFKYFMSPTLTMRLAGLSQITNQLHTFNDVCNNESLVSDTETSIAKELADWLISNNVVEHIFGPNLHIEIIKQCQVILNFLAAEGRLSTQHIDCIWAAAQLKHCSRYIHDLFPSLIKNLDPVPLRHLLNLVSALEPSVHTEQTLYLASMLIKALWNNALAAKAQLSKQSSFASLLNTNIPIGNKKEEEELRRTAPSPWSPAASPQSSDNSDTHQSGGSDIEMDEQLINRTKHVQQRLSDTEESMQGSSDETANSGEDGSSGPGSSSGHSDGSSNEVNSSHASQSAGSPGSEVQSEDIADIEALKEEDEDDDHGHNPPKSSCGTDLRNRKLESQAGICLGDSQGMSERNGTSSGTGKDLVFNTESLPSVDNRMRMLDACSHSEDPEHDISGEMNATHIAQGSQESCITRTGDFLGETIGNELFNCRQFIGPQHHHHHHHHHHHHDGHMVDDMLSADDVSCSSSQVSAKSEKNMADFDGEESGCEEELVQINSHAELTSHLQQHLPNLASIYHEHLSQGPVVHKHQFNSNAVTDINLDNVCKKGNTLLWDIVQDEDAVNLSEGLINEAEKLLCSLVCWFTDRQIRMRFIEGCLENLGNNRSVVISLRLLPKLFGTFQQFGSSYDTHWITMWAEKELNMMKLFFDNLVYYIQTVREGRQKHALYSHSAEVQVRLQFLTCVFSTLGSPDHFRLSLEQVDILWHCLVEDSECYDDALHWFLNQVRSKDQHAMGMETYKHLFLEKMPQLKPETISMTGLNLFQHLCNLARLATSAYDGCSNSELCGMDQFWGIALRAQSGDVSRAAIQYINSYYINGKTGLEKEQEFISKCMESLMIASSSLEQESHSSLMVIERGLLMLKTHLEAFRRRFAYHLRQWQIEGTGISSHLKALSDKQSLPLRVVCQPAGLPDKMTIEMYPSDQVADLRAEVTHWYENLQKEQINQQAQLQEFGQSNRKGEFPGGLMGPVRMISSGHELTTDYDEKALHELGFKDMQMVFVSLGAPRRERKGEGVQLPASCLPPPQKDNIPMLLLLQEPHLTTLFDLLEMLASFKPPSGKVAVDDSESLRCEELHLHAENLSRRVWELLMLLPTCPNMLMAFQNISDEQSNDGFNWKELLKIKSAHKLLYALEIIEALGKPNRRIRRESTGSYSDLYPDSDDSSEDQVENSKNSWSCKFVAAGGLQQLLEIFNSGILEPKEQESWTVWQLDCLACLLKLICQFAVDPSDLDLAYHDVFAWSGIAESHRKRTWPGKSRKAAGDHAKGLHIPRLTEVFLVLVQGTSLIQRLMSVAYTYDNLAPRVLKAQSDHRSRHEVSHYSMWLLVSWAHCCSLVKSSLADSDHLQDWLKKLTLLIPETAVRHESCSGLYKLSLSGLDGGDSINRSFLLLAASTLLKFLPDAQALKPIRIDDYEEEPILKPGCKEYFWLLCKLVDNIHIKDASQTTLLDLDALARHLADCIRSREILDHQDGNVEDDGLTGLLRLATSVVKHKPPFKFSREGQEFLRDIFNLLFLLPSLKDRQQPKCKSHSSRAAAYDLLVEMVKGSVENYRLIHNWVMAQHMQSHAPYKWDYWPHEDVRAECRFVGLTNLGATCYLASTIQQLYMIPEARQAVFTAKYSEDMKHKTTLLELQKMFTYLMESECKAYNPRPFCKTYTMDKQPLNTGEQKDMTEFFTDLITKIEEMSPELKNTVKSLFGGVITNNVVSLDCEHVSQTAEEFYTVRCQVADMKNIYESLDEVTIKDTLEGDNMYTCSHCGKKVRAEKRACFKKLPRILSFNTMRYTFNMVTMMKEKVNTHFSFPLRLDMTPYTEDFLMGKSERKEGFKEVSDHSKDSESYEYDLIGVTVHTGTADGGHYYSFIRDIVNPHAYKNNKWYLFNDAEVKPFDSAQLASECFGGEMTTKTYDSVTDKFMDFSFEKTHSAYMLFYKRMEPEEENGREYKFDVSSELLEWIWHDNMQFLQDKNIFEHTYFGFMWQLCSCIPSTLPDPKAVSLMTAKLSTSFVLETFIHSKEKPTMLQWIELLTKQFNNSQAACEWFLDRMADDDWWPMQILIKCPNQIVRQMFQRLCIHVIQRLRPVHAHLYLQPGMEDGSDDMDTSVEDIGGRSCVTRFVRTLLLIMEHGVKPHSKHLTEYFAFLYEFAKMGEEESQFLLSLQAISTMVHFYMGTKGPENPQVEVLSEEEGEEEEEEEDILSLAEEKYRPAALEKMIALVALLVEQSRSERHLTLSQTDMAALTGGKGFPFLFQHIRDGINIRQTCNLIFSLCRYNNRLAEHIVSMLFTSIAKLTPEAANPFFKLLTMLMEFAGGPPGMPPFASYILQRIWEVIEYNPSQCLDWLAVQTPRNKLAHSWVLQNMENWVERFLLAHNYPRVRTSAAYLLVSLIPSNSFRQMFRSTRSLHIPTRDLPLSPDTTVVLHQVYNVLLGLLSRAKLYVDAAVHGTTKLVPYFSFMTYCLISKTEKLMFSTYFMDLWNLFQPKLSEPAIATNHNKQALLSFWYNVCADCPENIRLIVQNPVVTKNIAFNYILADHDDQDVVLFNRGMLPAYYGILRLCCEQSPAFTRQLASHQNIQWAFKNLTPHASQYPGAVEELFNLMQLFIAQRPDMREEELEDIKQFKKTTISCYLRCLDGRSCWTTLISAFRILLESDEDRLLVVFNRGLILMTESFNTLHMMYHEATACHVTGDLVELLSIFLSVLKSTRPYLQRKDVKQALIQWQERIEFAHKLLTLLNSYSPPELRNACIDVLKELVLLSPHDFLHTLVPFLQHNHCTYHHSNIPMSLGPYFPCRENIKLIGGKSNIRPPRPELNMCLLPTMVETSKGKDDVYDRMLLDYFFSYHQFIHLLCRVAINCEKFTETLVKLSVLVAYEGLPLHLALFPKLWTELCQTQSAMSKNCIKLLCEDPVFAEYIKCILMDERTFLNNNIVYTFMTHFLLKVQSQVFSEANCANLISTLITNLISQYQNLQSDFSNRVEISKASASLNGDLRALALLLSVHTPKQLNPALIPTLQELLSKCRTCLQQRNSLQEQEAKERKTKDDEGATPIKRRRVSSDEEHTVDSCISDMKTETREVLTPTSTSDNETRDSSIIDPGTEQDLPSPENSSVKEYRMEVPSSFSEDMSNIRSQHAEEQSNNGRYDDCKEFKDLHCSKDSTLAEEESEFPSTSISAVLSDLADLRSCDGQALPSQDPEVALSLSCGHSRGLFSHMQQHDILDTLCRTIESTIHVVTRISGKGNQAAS
Sequence of PES1 C361 (O00541) (O00541 whole entry, looked up): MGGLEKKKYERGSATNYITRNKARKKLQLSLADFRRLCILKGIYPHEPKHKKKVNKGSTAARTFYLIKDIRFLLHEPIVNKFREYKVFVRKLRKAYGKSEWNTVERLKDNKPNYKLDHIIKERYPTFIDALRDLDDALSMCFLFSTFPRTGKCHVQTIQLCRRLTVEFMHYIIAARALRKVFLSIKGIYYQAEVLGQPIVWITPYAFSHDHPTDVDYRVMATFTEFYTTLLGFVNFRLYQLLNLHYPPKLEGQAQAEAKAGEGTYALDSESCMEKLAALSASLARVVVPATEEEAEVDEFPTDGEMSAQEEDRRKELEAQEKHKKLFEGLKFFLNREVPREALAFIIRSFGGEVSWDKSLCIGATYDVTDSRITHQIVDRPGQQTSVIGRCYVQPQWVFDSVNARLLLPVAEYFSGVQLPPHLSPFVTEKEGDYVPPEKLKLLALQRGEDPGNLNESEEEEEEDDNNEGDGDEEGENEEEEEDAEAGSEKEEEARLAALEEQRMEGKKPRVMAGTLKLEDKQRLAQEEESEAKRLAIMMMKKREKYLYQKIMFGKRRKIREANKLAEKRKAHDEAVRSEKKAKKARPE

COc1cc(NC(=O)CCl)cc(OC)c1 [compound 43]
isoTOP-ABPP reactivity profile ratio, Q9UPT9_C44 (USP22 C44 (Q9UPT9); 500 μm, in-vitro_ramos): 2.1

CC(C)CCOCCNC(=O)CCl [compound 27]
isoTOP-ABPP ratio (reactivity profile), Q9UPT9_C44 (USP22 C44 (Q9UPT9); 500 μm in-vitro ramos): 1.2 | isoTOP-ABPP ratio (reactivity profile), Q9UPT9_C44 (USP22 C44 (Q9UPT9); 500 μm in-vitro ramos_231): 20.0

C=CC(=O)N(c1ccccc1)c1ccc(Br)cc1 [compound 5]
isoTOP-ABPP ratio, Q70CQ2_C1090 (USP34 C1090 (Q70CQ2); 500 μM, invitro, ramos): 20.0 | isoTOP-ABPP ratio, Q9UPT9_C44 (USP22 C44 (Q9UPT9); 500 μM, invitro, ramos): 20.0

O=C(CCl)Nc1cc(C(F)(F)F)cc(C(F)(F)F)c1 [compound 3]
R value (DMSO/fragment) (USP34 C1090 (Q70CQ2); 500 μM, invitro, ramos): 19.7 | R value (DMSO/fragment) (PES1 C361 (O00541); 500 μM, in vitro, MDA-MB-231): 1.5 | R value (DMSO/fragment) (NR3C1 C622 (P04150); 500 μM, in vitro, MDA-MB-231): 20.0

N#C/C(=C\c1cc(C(F)(F)F)cc(C(F)(F)F)c1)C(N)=O [compound 23]
isoTOP-ABPP ratio (reactivity profile), O00541_C361 (PES1 C361 (O00541); 500 μm in-vitro ramos): 1.1

C=CC(=O)N(Cc1cccnc1)c1cc(C(F)(F)F)cc(C(F)(F)F)c1 [compound 31]
isoTOP-ABPP reactivity ratio, P04150_C622 (NR3C1 C622 (P04150); 500 μm, in-vitro_ramos_231): 4.8

Cn1cc(S(=O)(=O)N2CCOCC2)cc1C(=O)NC(=O)CCl [compound 11]
isoTOP-ABPP ratio, P04150_C622 (NR3C1 C622 (P04150); 500 μM, invitro, 231): 1.7

O=C(CCl)NC12CC3CC(CC(C3)C1)C2 [compound 21]
isoTOP-ABPP ratio (reactivity profile), Q70CQ2_C1090 (USP34 C1090 (Q70CQ2)): 0.9

O=C(CCl)N1CCC(C(O)(c2ccccc2)c2ccccc2)CC1 [compound 20]
isoTOP-ABPP ratio (reactivity profile), Q70CQ2_C1090 (USP34 C1090 (Q70CQ2)): 2.7 | isoTOP-ABPP ratio (reactivity profile), O00541_C361 (PES1 C361 (O00541); 500 μm in-vitro ramos): 20.0 | isoTOP-ABPP ratio (reactivity profile), O00541_C361 (PES1 C361 (O00541); 500 μm in-vitro ramos_231): 20.0

CCN(CC)c1ccc(S(N)(=O)=O)cc1NC(=O)CCl [compound 30]
isoTOP-ABPP reactivity ratio, Q9UPT9_C44 (USP22 C44 (Q9UPT9); 500 μm, in-vitro_ramos): 1.7

From patent US10670605B2, “Cysteine reactive probes and uses thereof” (The Scripps Research Institute, priority 2015, dated 2020)
